In article PMC4830886, “Extended evaluation on the ES-D3 cell differentiation assay combined with the BeWo transport model, to predict relative developmental toxicity of triazole compounds” (Archives of Toxicology, 2015):
Marks after values point to notes of the source that are not given here.

System: time-mated Wistar rats
Test: in vivo maternal and prenatal developmental toxicity screening study (OECD 414 principles)
Conditions: rat
Source text: The major differences to a full guideline study were the smaller sample size, using 9–10 instead of at least 16 pregnant rats, per test substance.
The animals were paired by the breeder [time-mated Wistar rats, Crl: WI (Han), Charles River Laboratories, Sulzfeld, Germany], between 10 and 12 weeks of age, and supplied on the day of evidence of mating; this day is referred to as gestational day (GD) 0 and following day as GD 1. […] This strain has been extensively used, both in our laboratory and elsewhere, and is sensitive to reproductive toxicants. All rats were housed individually in Makrolon cages with Lignocel PS 14 fibers dust-free bedding and wooden enrichment blocks. The cages were kept in climate-controlled rooms at 20–24 °C with a relative humidity of 30–70 %, an air exchange rate of 15 times per hour and a 12-h light/dark cycle. Diet (Ground Kliba SA, Switzerland) and tap water were provided ad libitum. In-life data (mortality, clinical signs, body weights and food consumption) were recorded throughout the study, but presented only if relevant for the interpretation of prenatal developmental effects.
The test compounds administered by gavage were administrated between 100 and 600 mg/kg bw/day using the vehicle 1 % carboxymethylcellulose in deionized water. The standard dose volume was 10 ml/kg bw.
On GD 20, the surviving dams were anesthetized with isoflurane, killed by decapitation and examined macroscopically. For each dam, the uterus was opened and the number, distribution and classification of implantation sites (live fetus, early and late fetal resorptions, and dead fetus) were determined. The fetuses were removed, sexed and fetal body weight determined. Gross pathological examination of the fetuses, including assessment of abnormalities of the fetal membranes, placentas, amniotic fluid and umbilical cord, was performed. Subsequently, all fetuses were killed by injection of pentobarbital. […] The other half of the fetuses of each dam was fixed in Harrison’s fluid. […] A permanent structural change that is likely to affect adversely the survival or health was assessed as malformation. A change that also occurs in the fetuses of control animals and/or is unlikely to affect adversely the survival or health was assessed as variation. This includes delays in growth or morphogenesis that have otherwise followed a normal pattern of development.
Maternal toxicity was classified as slight if body weight and/or carcass weight reduction is not above 10 %, moderate if body weight and/or carcass weight reduction is between 10 and 20 % and severe if body weight and/or carcass weight reduction is above 20 %. All the in vivo data are expressed as the affected fetuses/litter.

[1] = gavage GD 6–19, 200 mg/kg, affected fetuses/litter
[2] = gavage GD 6–19, 600 mg/kg, affected fetuses/litter
[3] = 1 = highest potential, 6 = lowest, among the six test compounds
[4] = female, Wistar Crl:WI(Han), in vivo
[5] = gavage GD 6–19, 100 mg/kg, affected fetuses/litter

SMILES | Early resorption (%) (gavage GD 6–19, 200 mg/kg) | Fetal weight (%) (gavage GD 6–19, 200 mg/kg) | Late resorption (%) (gavage GD 6–19, 200 mg/kg) | Maternal toxicity classification (gavage GD 6–19, 200 mg/kg) | Maternal toxicity findings (gavage GD 6–19, 200 mg/kg) | Placenta weight (%) (gavage GD 6–19, 200 mg/kg) | Postimplantation loss (%) (gavage GD 6–19, 200 mg/kg) | Total number of fetuses (gavage GD 6–19, 200 mg/kg) | Early resorption (%) (gavage GD 6–19, 600 mg/kg) | Fetal weight (%) (gavage GD 6–19, 600 mg/kg) | Late resorption (%) (gavage GD 6–19, 600 mg/kg) | Placenta weight (%) (gavage GD 6–19, 600 mg/kg) | Postimplantation loss (%) (gavage GD 6–19, 600 mg/kg) | Total number of fetuses (gavage GD 6–19, 600 mg/kg) | Malformation, Total (skeletal) [2] | Ranking (in vivo prenatal developmental toxicity potency) [3] | Ranking (in vivo prenatal developmental toxicity potency) [4] | Malformation, Total (skeletal) [1] | other results
CC(c1nc(-c2ccc(C#N)cc2)cs1)C(O)(Cn1cncn1)c1ccc(F)cc1 (centres unmarked) [compound 0596, 4-{2-[2-(4-Fluoro-phenyl)-2-hydroxy-1-methyl-3-[1,2,4]triazol-1-yl-propyl]-thiazol-4-yl}-benzonitrile] | 2.9% | 108% | 0.0% | No | NAD | 127** % | 2.9% | 109 | 7.7% | 105% | 0.8% | 133% | 8.6% | 102 | Total 100 %** | 2 |  |  | Misshapen basisphenoid [1]: 30.6%; Misshapen cervical arch [1]: 14.3%; Severely malformed skull bones [1]: 5.3%; Maternal toxicity classification (gavage GD 6–19, 600 mg/kg): No; Maternal toxicity findings (gavage GD 6–19, 600 mg/kg): NAD; Misshapen basisphenoid [2]: 13%; Misshapen cervical arch [2]: 70.2%; Severely malformed skull bones [2]: 82.8%
CC1CC(C)OC(Cn2cncn2)(c2ccc(Oc3ccc(Cl)cc3)cc2Cl)O1 (centres unmarked) [compound 0600, 1-[[2-[2-Chloro-4-(4-chlorophenoxy)phenyl]-4,6-dimethyl-1,3-dioxan-2-yl]methyl]-1,2,4-triazole] | 4.0% | 102% | 0.0% | No | NAD | 105% | 4.0% | 99 | 6.0% | 102% | 1.0% | 130% | 7.0% | 104 | 81% |  | 3 | Total 0% | Malformation, CP (cleft palate) [2]: 5%; Misshapen pterygoid bones [2]: 36.3%; Small tuberositas deltoidea [2]: 48.1%
CC(c1nc(-c2ccc(C#N)cc2)cs1)C(O)(Cn1ccnc1)c1ccc(F)cc1 (centres unmarked) [compound 0599, 4-[2-[2-(4-Fluorophenyl)-2-hydroxy-3-imidazol-1-yl-1-methyl-propyl]thiazol-4-yl]benzonitrile] |  |  |  |  |  |  |  |  |  |  |  |  |  |  |  | 1 |  |  | Early resorption (%) (gavage GD 6–19, 100 mg/kg): 7.8%; Fetal weight (%) (gavage GD 6–19, 100 mg/kg): 102%; Late resorption (%) (gavage GD 6–19, 100 mg/kg): 0.8%; Maternal carcass weight (CW) (gavage GD 6–19, 100 mg/kg): 91%; Placenta weight (%) (gavage GD 6–19, 100 mg/kg): 116%; Postimplantation loss (%) (gavage GD 6–19, 100 mg/kg): 8.6%; Total number of fetuses (gavage GD 6–19, 100 mg/kg): 99; Maternal body weight change BWC (6–8) (gavage GD 6–19, 100 mg/kg, GD 6–8): 66%; Maternal food consumption FC (6–20) (gavage GD 6–19, 100 mg/kg, GD 6–20): > 74%; Malformation, CP (cleft palate) [5]: 10%; Malformation, Total (skeletal) [5]: 100%; Misshapen basisphenoid [5]: 74.2%; Misshapen temporal bone [5]: 85.4%; Small tuberositas deltoidea [5]: 66.3%; Maternal mortality (gavage GD 6–19, 250 mg/kg): Mortality 100 %**; Total number of fetuses (gavage GD 6–19, 250 mg/kg): 0
OC(c1cccnc1)c1c(-c2ccc(F)cc2F)noc1-c1ccc(Cl)cc1F (centres unmarked) [compound 0594, [5-(4-Chloro-2-fluoro-phenyl)-3-(2,4-difluoro-phenyl)-isoxazol-4-yl]-pyridin-3-yl-methanol] | 5.9% | 107% | 1.9% | No | No | 110% | 7.8% | 99 | 14.1% | 101% | 0.8% | 116% | 14.9% | 98 |  |  | 4 |  | Bent femur [2]: Bent femur 12.5%
OC(c1cccnc1)c1c(-c2ccc(F)cc2F)csc1-c1ccc(F)cc1F (centres unmarked) [compound 0595, [2,4-Bis-(2,4-difluoro-phenyl)-thiophen-3-yl]-pyridin-3-yl-methanol] | 21.9% | 102% | 2.0% | No | NAD | 117% | 24% | 74 | 100% |  | 0.0% |  | 100.0** % | 0 |  |  | 6 | Total 0% | Maternal body weight (BW) (gavage GD 6–19, 600 mg/kg): 74%; Maternal carcass weight (CW) (gavage GD 6–19, 600 mg/kg): 89%; Maternal mortality (gavage GD 6–19, 600 mg/kg): 30%; teratogenic potential (overall assessment of the in vivo study): no teratogenic potential
